In paper PMC10302146, “Dual Anta-Inhibitors Targeting Protein Kinase CK1δ and A2A Adenosine Receptor Useful in Neurodegenerative Disorders” (Molecules, 2023):

Experiments:
N13 microglial cells [1] = test: N13 cell viability, CK cocktail 48 h pretreatment then ligand (A2AAR antagonist protocol); settings: for effect after CK cocktail damage in the presence of NECA: compound 1 7.5 µM, compound 2 4.5 µM, NECA 10 µM; for effect after CK cocktail damage in the presence of NECA / counteraction of CK cocktail effect (cell viability): 60 min; for effect after CK cocktail damage in the presence of NECA / rescue of inflammatory damage (cell viability): after CK cocktail 20 ng/mL 48 h; for rescue of inflammatory damage (cell viability) / counteraction of CK cocktail effect (cell viability): lower concentrations (0.625 µM compound 1, 0.375 µM compound 2); for rescue of inflammatory damage (cell viability): 30 min; for counteraction of CK cocktail effect (cell viability): after CK cocktail 48 h
Description: Given the nature of compounds, dual A2A/CK1δ anta-inhibitors, their neuroprotective effect against a neuroinflammatory insult was investigated following two different approaches aimed at studying the antagonist activity on the A2AAR and the inhibitor effect on CK1δ. […] The concentrations used were 35, 65, and 400 µM at 60 min of incubation.
N13 cells were plated in 96-well plates at the confluence of 1 × 10^4 cells/well and incubated overnight. Cells were divided into two groups in order to study the activity of compounds on A2AAR and CK1δ (Scheme 1). […] Cells of the second group were pretreated with 2 µL at different concentrations of understudy ligand, or the reference compound PF670462, for 30 or 60 min and then with further addition of a proinflammatory cocktail of cytokines for 48 h (Scheme 1). After treatment, 20 µL of CellTiter 96® AQueous One Solution Reagent was added to each well to a final volume of 100 µL. After 1 h of incubation, absorbance was measured at 492 nm in the microplate reader GENiosPro. Cell viability was estimated as the relation between the OD of treated cells and the OD of untreated cells in percentage. An untreated control and a control with the solvent were run. Experiments were performed in triplicate.

N13 microglial cells [2] = test: N13 cell viability, ligand pretreatment 60 min then CK cocktail 48 h (CK1δ inhibition protocol); format: cell-based
[3] = Everted gut sac absorption study (duodenum), HPLC-MS; format: in vitro ADME, rat; settings: for Papp at 60 min: male, Wistar, rat
Description: Despite these remarkable assumptions, as many known kinase inhibitors are very often unable to cross lipid bilayer membranes, including the blood–brain barrier, and are, therefore, only suitable for non-central nervous system disorders, the ability of A2A/CK1δ double anta-inhibitors to cross the intestinal barrier was investigated. The experiment was performed using the everted gut sac model. The everted sac model is an efficient tool for studying in vitro drug absorption mechanisms, intestinal metabolism of drugs, the role of transporters in drug absorption, and investigating the role of intestinal enzymes during drug transport through the intestine. Compounds 1 and 2 were measured by liquid chromatography-mass spectrometry (LC-MS) in the mucosal and serosal media to provide a complete picture of the transport.
Compounds 1 and 2 were incubated in the duodenum for 60 min at concentrations of 10^−4, 10^−5, and 10^−6 M to evaluate their absorption.
The concentrations 10^−4, 10^−5, and 10^−6 M correspond to 24.6, 2.46, and 0.246 μg/mL of compound 1 and to 37.6, 3.76, and 0.376 μg/mL of compound 2 due to different molecular weights. Glucose was used to verify the integrity and viability of the gut sacs. Intestine sacs were exposed to the concentrations of compounds under study with respect to glucose-treated tissues. After incubation time, fluids from the mucosal (outside the sacs) and serosal (inside the sacs) sides of the rat gut sacs were collected and detected by HPLC-MS analysis. As expected, the amount of the absorbed analytes was concentration dependent even if compound 1 was much better absorbed with respect to compound 2 (Table 2 and Table 3). […] Data are reported as means ± SE (n = 4–5 experiments). The amount of compounds absorbed compared to the initial concentration is statistically different (p < 0.05).
Adult male Wistar rats (250–300 g; 11–12 weeks) were sacrificed by cervical dislocation, the small intestine was removed, and the duodenum segment was isolated and washed in TC199 medium. The intestine was divided into segments of 2–2.5 cm in length (4 for each animal), and each of them was everted on a glass rod of […] in diameter. All segments were closed at one end with a silk thread, filled with fresh oxygenated TC199 medium, and closed at the other end, creating a shut section (sac). Each sac was placed in a 50 mL beaker containing 9.0 mL of medium aerated with oxygen (O2/CO2, 95%:5%) and thermostated at 37 °C. A total of 1 mL of medium containing one of the samples at a concentration of 1 uM, 10 uM, or 100 uM was added. Each concentration was tested in duplicate in three different animals. In order to mimic the intestine peristalsis, gut sacs were incubated in an oscillating water bath (60 cycles/min). After 1h incubation, sacs were removed, washed in saline solution (0.9% NaCl), and wiped with filter paper. The content of each sac (serosal fluid) was collected into a 1.5 mL Eppendorf tube, and the sac was weighed before and after serosal fluid removal to calculate the exact volume contained inside. Samples were centrifuged for 15 min. at 13,500× g, and the supernatant aqueous solution was filtered through a microporous membrane (0.45 μm) for high-performance liquid chromatography (HPLC). The amount of compound 1 or 2 present inside (serosal fluid) and outside (mucosal fluid) of each sac was calculated by HPLC with diode-array detection (HPLC-DAD) analysis.
The obtained samples from the everted sac model experiment were centrifuged for 20 min at 13,500× g rpm, and the supernatant aqueous solution was filtered through a microporous membrane (0.45 μm pore size) for high-performance liquid chromatography-mass spectrometry analysis. LC-MS analysis was carried out using an HPLC Agilent Technologies 1260 Infinity II and a single quadrupole mass spectrometer. […]

human recombinant A2AAR = target: human recombinant A2AAR; design: method as in PMID 37259317; settings: [3H]NECA, membranes from CHO cells stably transfected; means ± standard errors; read-out: KiA2A; cited from earlier work
human recombinant A3AR = target: human recombinant A3AR; design: method as in PMID 37259317; settings: [3H]HEMADO, membranes from CHO cells stably transfected; means ± standard errors; read-out: KiA3; cited from earlier work
CK1δ = system: CK1δ; design: method as in PMID 37259317; settings: cited from earlier work; for IC50: enzymatic inhibition
[4] = duodenum, 60 min, initial 10^−4 M (24.6 μg/mL compound 1, 37.6 μg/mL compound 2)
[5] = duodenum, 60 min, initial 10^−5 M (2.46 μg/mL compound 1, 3.76 μg/mL compound 2)
[6] = duodenum, 60 min, initial 10^−6 M (0.246 μg/mL compound 1, 0.376 μg/mL compound 2)

CN(C)c1nc(N)c2ncn(C3CCCC3)c2n1 [compound 1, 9-Cyclopentyl-N2,N2-dimethyl-9H-purine-2,6-diamine]
viability at 7.5 µM (N13 microglial cells [1]; N13, 48 h, read-out: cell viability): 89% | effect after CK cocktail damage in the presence of NECA (N13 microglial cells [1]): significantly lower than that obtained in the absence of NECA | rescue of inflammatory damage (cell viability) (N13 microglial cells [1]): unable to rescue the inflammatory damage | counteraction of CK cocktail effect (cell viability) (N13 microglial cells [1]): able to counteract the effect of the CK cocktail | viability at 40 µM (N13 microglial cells [2]; N13, 40 µM 60 min before CK cocktail 48 h, CK cocktail alone 79% ± 1.1 vs. control): 85% | Percentage of Drug Absorption (A%) ([3]; 10^−4 M, 60 min): 47% | Percentage of Drug Retention (Ad%) ([3]; 10^−4 M, 60 min): 2% | Percentage of Drug Absorption (A%) ([3]; 10^−5 M, 60 min): 42% | Percentage of Drug Retention (Ad%) ([3]; 10^−5 M, 60 min): 10% | Percentage of Drug Absorption (A%) ([3]; 10^−6 M, 60 min): 24% | Percentage of Drug Retention (Ad%) ([3]; 10^−6 M, 60 min): 35% | Absorbed Concentration [3, 4]: 11.5 µg/mL | Absorbed Concentration [3, 5]: 1.03 µg/mL | Absorbed Concentration [3, 6]: 0.059 µg/mL | Papp at 60 min ([3]; 10^−4 M): 33 ×10⁻⁶ cm/s | Papp at 60 min ([3]; 10^−5 M): 29.6 ×10⁻⁶ cm/s | Papp at 60 min ([3]; 10^−6 M): 16.9 ×10⁻⁶ cm/s | Ki (human recombinant A2AAR): 123 ± 2 nM | Ki (human recombinant A3AR): 2880 ± 695 nM | % Residual Activity at 10 μM ± sd (CK1δ): 27 ± 4.0% | % Residual Activity at 40 μM ± sd (CK1δ): 19 ± 9.4% | IC50 (CK1δ): 1750 ± 200 nM

CN(C)c1nc(NCc2nc3ccccc3[nH]2)c2ncn(C3CCCC3)c2n1 [compound 2, N^6-methyl-(2-benzimidazolyl)-2-dimethyamino-9-cyclopentyladenine]
cell viability (N13 microglial cells [1]): 125% ± 3.1 | effect after CK cocktail damage in the presence of NECA (N13 microglial cells [1]): significantly lower than that obtained in the absence of NECA | rescue of inflammatory damage (cell viability) (N13 microglial cells [1]): unable to rescue the inflammatory damage | counteraction of CK cocktail effect (cell viability) (N13 microglial cells [1]): able to counteract the effect of the CK cocktail | cell viability (N13 microglial cells [2]; 25 µM 60 min before CK cocktail 48 h, CK cocktail alone 79% ± 1.1 vs. control (Figure 6)): 94% ± 2.2 | effect of NECA on the neuroprotective effect of the compound (N13 microglial cells [2]; compound 25 µM 60 min before CK cocktail 48 h, then NECA 10 µM): ineffective | Papp (×10^−6 cm/s) ([3]; 10^−4 M, 60 min): 16.1 ×10^−6 cm/s | Percentage of Drug Absorption (A%) ([3]; 10^−4 M, 60 min): 23% | Percentage of Drug Retention (Ad%) ([3]; 10^−4 M, 60 min): 55% | Papp (×10^−6 cm/s) ([3]; 10^−5 M, 60 min): 10.8 ×10^−6 cm/s | Percentage of Drug Absorption (A%) ([3]; 10^−5 M, 60 min): 15% | Percentage of Drug Retention (Ad%) ([3]; 10^−5 M, 60 min): 66% | metabolic conversion in everted gut sac (HPLC analysis) ([3]; duodenum, 60 min): partially converted into its metabolite, compound 1 | Absorbed Concentration [3, 4]: 8.66 µg/mL | Absorbed Concentration [3, 5]: 0.576 µg/mL | Absorbed Concentration [3, 6]: not detectable | Ki (human recombinant A2AAR): 76.2 ± 173 nM | Ki (human recombinant A3AR): 1150 ± 107 nM | % Residual Activity at 10 μM ± sd (CK1δ): 34 ± 5.0% | % Residual Activity at 40 μM ± sd (CK1δ): 22 ± 1.0% | IC50 (CK1δ): 590 ± 200 nM
